Assay results: patent publication US5191093A, “Process for preparing crystalline calcium pseudomonate” (Beecham Group p.l.c., priority 1990, dated 1993)
Structures can show the parent of a compound that is named as a salt. Where two headings read alike, the source gives them in different places.

Tests used:
[1] = format: physicochemical
Description: |Thermal stability data: for crystalline calcium |pseudomate dihydrate, amorphous calcium pseudomonate |Percentage |Initial |Potency |after |Storage ** | ** Expressed as percentage of initial purity.

Water solubility = format: physicochemical; settings: amorphous form
M.bovigenitalium = assay: In vitro MIC against Mycoplasma, Friis broth agarose; format: cell-based; settings: 144 h; strain ATCC 14173; 6 days at 37° C.
Method: (§1) The activity of the compounds of the Examples against various mycoplasmal organisms was assayed in vitro in Friis broth solidified with 0.9% agarose and inoculated with 10^3 to 10^5 C.F.U. The minimum inhibitory concentrations (MIC's) were determined after incubation for 6 days at 37° C. and are shown in Table 1.

M.bovis = assay: as above; format: cell-based; settings: NCTC10131, 144 h
Method: as §1

M.gallisepticum = assay: as above; format: cell-based; settings: Mycoplasmoides gallisepticum, 144 h; strain S6; 6 days at 37° C.
Method: as §1

M.hyopneumoniae = assay: as above; format: cell-based
Method: as §1

M.hyorhinis = assay: as above; format: cell-based; settings: Mesomycoplasma hyorhinis, 6 days at 37° C.
Method: as §1

M.hyosynoviae = assay: as above; format: cell-based; settings: 144 h; strain ATCC 25591; 6 days at 37° C.
Method: as §1

M.pneumoniae = assay: as above; format: cell-based; settings: Mycoplasmoides pneumoniae, ATCC15492, 144 h; strain ATCC 15492; 6 days at 37° C.
Method: as §1

B.subtilis = assay: In vitro MIC against veterinary bacteria, Diagnostic Sensitivity Test Agar; format: cell-based; settings: Bacillus subtilis, ATCC6633; strain ATCC 6633; 18 hours at 37° C.
Method: (§2) The activity of the compounds of the Examples against various veterinarily important bacteria, was assayed in vitro using two-fold serial dilutions in Diagnostic Sensitivity Test Agar inoculated with 10^4 organisms.

Bord.bronchiseptica = assay: as above; format: cell-based; settings: Bordetella bronchiseptica, 18 h, 18 hours at 37° C.
Method: as §2

Corynebacterium pyogenes = assay: as above; format: cell-based; settings: Trueperella pyogenes; strain CY1; 18 hours at 37° C.
Method: as §2

E.coli [2] = assay: as above; format: cell-based; settings: Escherichia coli, 18 hours at 37° C.
Method: as §2

[3] = system: Erysipelothrix rhusiopathiae; assay: as above; format: cell-based; settings: NCTC8163, strain NCTC 8163, 18 hours at 37° C.
Method: as §2

Moraxella Bovis = assay: as above; format: cell-based; settings: 18 hours at 37° C.
Method: as §2

Past.haemolytica = assay: as above; format: cell-based; settings: Mannheimia haemolytica; strain PA5; 18 hours at 37° C.
Method: as §2

Past.multocida = assay: as above; format: cell-based; settings: Pasteurella multocida; strain PA1; 18 hours at 37° C.
Method: as §2

S.dublin = assay: as above; format: cell-based; settings: Salmonella enterica; strain S7; 18 hours at 37° C.
Method: as §2

S.typhimurium = assay: as above; format: cell-based; settings: Salmonella enterica, strain S18, 18 hours at 37° C.
Method: as §2

Staph.aureus = assay: as above; format: cell-based; settings: Staphylococcus aureus, 18 h, 18 hours at 37° C.
Method: as §2

Strep.agalactiae = assay: as above; format: cell-based; settings: Streptococcus agalactiae; strain SPA1; 18 hours at 37° C.
Method: as §2

Strep.dysgalaciae = assay: as above; format: cell-based; settings: strain SPD1; 18 hours at 37° C.
Method: as §2

Strep.suis (group D) = assay: as above; format: cell-based; settings: Streptococcus suis; strain SPS11; 18 hours at 37° C.
Method: as §2

Strep.uberis = assay: as above; format: cell-based; settings: Streptococcus uberis; strain SPU1; 18 hours at 37° C.
Method: as §2

Bacillus subtilis = assay: In vitro MIC against human bacteria, nutrient agar with 5% chocolated horse blood; format: cell-based; settings: strain 6633, 18 hours at 37° C.
Method: (§3) The activity of the compounds of the Examples against various bacteria which are important in diseases of humans, was assayed in vitro using serial dilutions in nutrient agar with 5% chocolated horse blood.

Corynebacterium xerosis = assay: as above; format: cell-based; settings: strain 9755, 18 hours at 37° C.
Method: as §3

E.coli [4] = assay: as above; format: cell-based; settings: Escherichia coli, 18 hours at 37° C.
Method: as §3

Haemophilus influenzae = assay: as above; format: cell-based; settings: 18 hours at 37° C.
Method: as §3

K.aerogenes = assay: as above; format: cell-based; settings: Klebsiella aerogenes; strain A; 18 hours at 37° C.
Method: as §3

Neisseria catarrhalis = assay: as above; format: cell-based; settings: strain 1502, 18 hours at 37° C.
Method: as §3

P.aeruginosa = assay: as above; format: cell-based; settings: Pseudomonas aeruginosa; strain 10662; 18 hours at 37° C.
Method: as §3

Pasteurella multocida = assay: as above; format: cell-based; settings: strain 1633, 18 hours at 37° C.
Method: as §3

R.mirabilis = assay: as above; format: cell-based; settings: strain 889; 18 hours at 37° C.
Method: as §3

S.agalactiae = assay: as above; format: cell-based; settings: 18 hours at 37° C.
Method: as §3

S.aureus = assay: as above; format: cell-based; settings: Staphylococcus aureus, 18 h, 18 hours at 37° C.
Method: as §3

S.faecalis = assay: as above; format: cell-based; settings: 18 hours at 37° C.
Method: as §3

S.pneumoniae = assay: as above; format: cell-based; settings: Streptococcus pneumoniae; strain CN33; 18 hours at 37° C.
Method: as §3

S.pyogenes = assay: as above; format: cell-based; settings: Streptococcus pyogenes, 18 h, 18 hours at 37° C.
Method: as §3

Sarcina lutea = assay: as above; format: cell-based; settings: Micrococcus luteus; strain 8340; 18 hours at 37° C.
Method: as §3

Streptococcus Spp = assay: as above; format: cell-based; settings: 18 hours at 37° C.
Method: as §3

SMILES: CC(=CC(=O)OCCCCCCCCC(=O)O)CC1OCC(CC2OC2C(C)C(C)O)C(O)C1O (centres unmarked) [Anhydrous Amorphous Calcium Salt, Amorphous Anhydrous Calcium Pseudomonate A]
- thermal stability (in words) [1]: poor thermal stability
- Percentage Initial Potency after Storage ([1]; 192 h): 29%
- Percentage Initial Potency after Storage ([1]; 240 h): 83.3%
- water solubility (in words) (Water solubility): sparingly water soluble

SMILES: CC(=CC(=O)OCCCCCCCCC(=O)O)CC1OCC(CC2OC2C(C)C(C)O)C(O)C1O (centres unmarked) [Calcium Pseudomonate dihydrate, Calcium Pseudomonate Dihydrate]
- Percentage Initial Potency after Storage ([1]; 192 h): 97%
- Percentage Initial Potency after Storage ([1]; 240 h): 98.9%
- MIC (M.bovigenitalium): 0.1 µg/mL
- MIC (M.bovis): 0.025 µg/mL
- MIC (M.gallisepticum): > 10 µg/mL
- MIC (M.hyopneumoniae; Mesomycoplasma hyopneumoniae, 144 h, mean of M.hyopneumoniae strains, read-out: MIC, MEAN): 2.5 µg/mL
- MIC (M.hyopneumoniae; Mesomycoplasma hyopneumoniae, 144 h, strain JF 435, 6 days at 37° C., read-out: MIC): 2.5 µg/mL
- MIC (M.hyopneumoniae; Mesomycoplasma hyopneumoniae, NCTC10110, 144 h, strain NCTC 10110, 6 days at 37° C., read-out: MIC): 2.5 µg/mL
- MIC (M.hyopneumoniae; strain ATTCC 25095, 6 days at 37° C.): 2.5 µg/mL
- MIC (M.hyopneumoniae; strain HK (2), 6 days at 37° C.): 2.5 µg/mL
- MIC (M.hyopneumoniae; strain J2206/183b, 6 days at 37° C.): 2.5 µg/mL
- MIC (M.hyopneumoniae; strain LABER, 6 days at 37° C.): 2.5 µg/mL
- MIC (M.hyopneumoniae; strain MS16, 6 days at 37° C.): 2.5 µg/mL
- MIC (M.hyopneumoniae; strain PW/C/210, 6 days at 37° C.): 2.5 µg/mL
- MIC (M.hyopneumoniae; strain Str 11, 6 days at 37° C.): 2.5 µg/mL
- MIC (M.hyopneumoniae; strain TAM 6N, 6 days at 37° C.): 2.5 µg/mL
- MIC (M.hyopneumoniae; strain UCD1, 6 days at 37° C.): 2.5 µg/mL
- MIC (M.hyorhinis; ATCC23234, 144 h, strain ATCC 23234): 1 µg/mL
- MIC (M.hyorhinis; ATCC25021, 144 h, strain ATCC 25021): 1 µg/mL
- MIC (M.hyosynoviae): 0.5 µg/mL
- MIC (M.pneumoniae): 5 µg/mL
- MIC (B.subtilis): 0.07 µg/mL
- MIC (Bord.bronchiseptica; strain B08): 5 µg/mL
- MIC (Bord.bronchiseptica; strain B09): 1.3 µg/mL
- MIC (Corynebacterium pyogenes): > 80 µg/mL
- MIC (E.coli [2]; NCTC10418, strain NCTC 10418): 80 µg/mL
- MIC (E.coli [2]; strain E1): 80 µg/mL
- MIC [3]: 20 µg/mL
- MIC (Moraxella Bovis): 0.31 µg/mL
- MIC (Past.haemolytica): 2.5 µg/mL
- MIC (Past.multocida): 0.07 µg/mL
- MIC (S.dublin): 80 µg/mL
- MIC (S.typhimurium): 80 µg/mL
- MIC (Staph.aureus; strain 152 (pen.sens.)): 0.16 µg/mL
- MIC (Staph.aureus; strain (Mexi)): 0.16 µg/mL
- MIC (Staph.aureus; strain B4 (pen.resistant)): 0.16 µg/mL
- MIC (Staph.aureus; strain M60): 0.16 µg/mL
- MIC (Staph.aureus; strain Oxford): < 0.1 µg/mL
- MIC (Strep.agalactiae): 0.16 µg/mL
- MIC (Strep.dysgalaciae): 0.16 µg/mL
- MIC (Strep.suis (group D)): 0.63 µg/mL
- MIC (Strep.uberis): 0.07 µg/mL
- MIC (Bacillus subtilis): 0.5 µg/mL
- MIC (Corynebacterium xerosis): > 128 µg/mL
- MIC (E.coli [4]; NCTC10418, strain NCTC 10418): 128 µg/mL
- MIC (E.coli [4]; strain ESS): 2 µg/mL
- MIC (Haemophilus influenzae; Haemophilus influenzae, strain Q1, read-out: MIC): 0.13 µg/mL
- MIC (Haemophilus influenzae; strain Wy21): 0.13 µg/mL
- MIC (K.aerogenes): > 128 µg/mL
- MIC (Neisseria catarrhalis): 0.13 µg/mL
- MIC (P.aeruginosa): > 128 µg/mL
- MIC (Pasteurella multocida): 0.5 µg/mL
- MIC (R.mirabilis): 128 µg/mL
- MIC (S.agalactiae; Streptococcus agalactiae, strain 2788-B, read-out: MIC): 0.5 µg/mL
- MIC (S.agalactiae; strain 2798B): 0.5 µg/mL
- MIC (S.agalactiae; strain 2866B): 0.5 µg/mL
- MIC (S.aureus; strain Oxford, read-out: MIC): 0.13 µg/mL
- MIC (S.aureus; strain Russell, read-out: MIC): 0.25 µg/mL
- MIC (S.aureus; strain T2P-, read-out: MIC): 0.25 µg/mL
- MIC (S.aureus; strain T22P-): 0.25 µg/mL
- MIC (S.aureus; strain T63P+): 0.25 µg/mL
- MIC (S.aureus; strain T67P+): 0.5 µg/mL
- MIC (S.aureus; strain V331, read-out: MIC): 0.5 µg/mL
- MIC (S.aureus; strain V352, read-out: MIC): 0.5 µg/mL
- MIC (S.aureus; strain W2827, read-out: MIC): 0.25 µg/mL
- MIC (S.faecalis; Enterococcus faecalis, strain Tunisia, read-out: MIC): 128 µg/mL
- MIC (S.faecalis; strain I(ER+)): 128 µg/mL
- MIC (S.faecalis; strain I): 128 µg/mL
- MIC (S.faecalis; strain PAGE): 128 µg/mL
- MIC (S.pneumoniae): 0.03 µg/mL
- MIC (S.pyogenes; strain 1947A): 0.13 µg/mL
- MIC (S.pyogenes; strain 1953-A): 0.13 µg/mL
- MIC (S.pyogenes; strain BcA): 0.5 µg/mL
- MIC (S.pyogenes; strain CN10A): 0.03 µg/mL
- MIC (Sarcina lutea): > 128 µg/mL
- MIC (Streptococcus Spp; Streptococcus, S.spp. strain 64/848-C, read-out: MIC): 0.5 µg/mL
- MIC (Streptococcus Spp; strain 2373C): 0.5 µg/mL
- MIC (Streptococcus Spp; strain 2465C): 0.5 µg/mL
- MIC (Streptococcus Spp; strain 2761C): 0.5 µg/mL

SMILES: C/C(=C\C(=O)OCCCCCCCCC(=O)O)C[C@@H]1OC[C@H](C[C@@H]2O[C@H]2[C@@H](C)[C@H](C)O)[C@@H](O)[C@H]1O [Pseudomonic Acid, Pseudomonic acid]
- Percentage Initial Potency after Storage ([1]; 192 h): 0%
- Percentage Initial Potency after Storage ([1]; 240 h): 77.9%

SMILES: CC(=CC(=O)OCCCCCCCCC(=O)O)CC1OCC(CC2OC2C(C)C(C)O)C(O)C1O (centres unmarked) [crystalline calcium pseudomonate, calcium pseudomonate]
- thermal stability (in words) [1]: outstandingly good thermal stability
